# Test results as given in publication PMC11999280, “Design and screening of novel endosomal escape compounds that enhance functional delivery of oligonucleotides in vitro” (Molecular Therapy. Nucleic Acids, 2025).
# Experiments:
# Assay type in all cases: cell-based
# [1] = test system: mCherry-GAL9 expressing HEK293 cells; test: GAL9 recruitment assay, HEK293; conditions: calculated mean from >3 independent exp.
# Method: (§1) Experiments assessing GAL9 localization as an indicator for endosomal remodeling were performed as previously described[15] using 8× stablemCherry-GAL9 expressing cell lines, SHSY5Y, U2OS, 16HBE, NCI-H358, HuH7, HepG2, HEK293, and HeLa. For mCherry-GAL9 recruitment, 3,000 or 6,500 cells/well (depending upon cell line) were seeded into 384-well CellCarrier Ultra plates 24 h prior to treatment (PerkinElmer, catalog no. 6007558). An Echo 655T acoustic dispenser (Labcyte) was used for EEE dose-response preparation by transferring to the cell plate. At assay endpoints, cells were PBS washed, 4% paraformaldehyde fixed at room temperature […] (VWR, catalog no. 9713.1000), and nuclei stained with PBS +1 μg/mL Hoechst 33342 (Thermo Fisher Scientific, catalog no. H21492).
# (§2) Imaging was performed using a spinning-disk confocal microscope (Yokogawa: CV8000) with a ×20w objective (numerical aperture 1.0). Cells and mCherry-GAL9 structure identification and quantification were done using Columbus image-analysis software (PerkinElmer version 2.9.0). Data processing was done using Spotfire (Tibco version 11.4) and Prism (GraphPad version 9.1.0). Image panels were assembled using the FigureJ plugin for FIJI.[43] All mCherry-GAL9 experiments were performed three times (N = 3) with duplicated wells per treatment (n = 2).
# [2] = test system: mCherry-GAL9 expressing SHSY5Y cells; test: GAL9 recruitment assay, SHSY5Y; conditions: calculated mean from >3 independent exp.
# Method: as §1, §2
# [3] = test system: mCherry-GAL9 expressing 16HBE cells; test: GAL9 recruitment assay, 16HBE; conditions: calculated mean from >3 independent exp.
# Method: as §1, §2
# [4] = test system: mCherry-GAL9 expressing HuH7 cells; test: GAL9 recruitment assay, HuH7; conditions: calculated mean from >3 independent exp.
# Method: as §1, §2
# [5] = test system: HeLa_Luc705 cells (pLuc/705 splice-switching reporter); test: Functional 705-SSO delivery, luciferase splice-switching assay; conditions: HeLa-Luc705 + 2 µM SSO; EEE 2.5 - 3 µM; mean from >3 independent experiments
# Source text: Therefore, next, we functionally screened the SSO delivery in the HeLa_Luc705 reporter cell line. HeLa_Luc705 carries a pLuc/705 splice-switching reporter luciferase gene interrupted by a mutated β-globin intron, which creates a preferentially used cryptic 5′ splice site leading to aberrant splicing. Functional SSO delivery masks the cryptic site, redirecting the splicing machinery to the right splicing site, allowing the measurement of luciferase expression (Figure S1).[25]^,[26]^,[27]^,[28] We used SSO transfection with LF2000 as transfection control and the previously published endosomal escape enhancer CMP05 (here, EEE2) as positive control.[15]
# For the assessment of functional SSO therapeutics, a HeLa_Luc705 cell line was grown in DMEM media supplemented with 10% fetal bovine serum (FBS). For most treatments, 10,000 cells/well were seeded in a 96-well plate, 24 h pre-incubated with 1- to 2-μM oligonucleotide, and then treated at the described EEE concentration. At 24 h post-treatment, cells were PBS rinsed and collected for further analysis (treatments and incubation times changed accordingly to the experiment design). Luciferase readout was performed as previously described,[15] using a GloMax 96-well plate microplate luminometer (Promega) immediately after adding 30 μL auto-injected luciferin substrate (Promega Firefly Luciferase Assay System; Thermo Scientific, catalog no. 16174) in a white-walled 96-well plate containing 30 μL 0.1% Triton X-100 (Sigma-Aldrich) cell lysed. Photon exposure time and delay were set to 10 and 2 s after injection. LF2000 was used as the transfection reagent control (Thermo Scientific, catalog no. 11668019). For EEE experiments using 1 or 2 μM SSOs, the control was prepared using lipofection with 100–200 nM SSO; this is to avoid complex induced cell toxicity.
# 705-SSO was purchased from and synthesized by Integrated DNA Technologies. The 705-SSO sequence was previously published, containing 2′-O-methylated bases and only phosphorothioate-saturated backbone linkages were included.[15] The 705-SSO was high-performance liquid chromatography purified, shipped, and stored in IDTE buffer (10 mM Tris, 0.1 mM EDTA).
# [6] = test system: mCherry-GAL9 expressing U2OS cells; test: GAL9 recruitment assay, U2OS; conditions: calculated mean from >3 independent exp.
# Method: as §1, §2
# [7] = test system: mCherry-GAL9 expressing HeLa cells; test: GAL9 recruitment assay, HeLa; conditions: calculated mean from >3 independent exp.
# Method: as §1, §2
# [8] = test system: mCherry-GAL9 expressing HepG2 cells; test: GAL9 recruitment assay, HepG2; conditions: calculated mean from >3 independent exp.
# Method: as §1, §2
# [9] = test system: mCherry-GAL9 expressing NCI-H358 cells; test: GAL9 recruitment assay, NCI-H358; conditions: calculated mean from >3 independent exp.
# Method: as §1, §2
smiles,measurement,setting,value
COc1nn(C2CCN(C)CC2)cc1Nc1ncc(F)c(-n2ccc3ccc(C#N)cc32)n1 [EEE14],Gal9 response compared to reference,[1]; EEE 0.31 µM,0.023
same,Gal9 response compared to reference,[1]; EEE 0.62 µM,0.019
same,Gal9 response compared to reference,[1]; EEE 1.25 µM,0.018
same,Gal9 response compared to reference,[1]; EEE 2.5 µM,0.035
same,Gal9 response compared to reference,[1]; EEE 5 µM,0.123
same,Gal9 response compared to reference,[1]; EEE 10 µM,0.443
same,Gal9 response compared to reference,[2]; EEE 0.31 µM,0.013
same,Gal9 response compared to reference,[2]; EEE 0.62 µM,0.014
same,Gal9 response compared to reference,[2]; EEE 1.25 µM,0.017
same,Gal9 response compared to reference,[2]; EEE 2.5 µM,0.083
same,Gal9 response compared to reference,[2]; EEE 5 µM,0.403
same,Gal9 response compared to reference,[2]; EEE 10 µM,0.645
same,Gal9 response compared to reference,[3]; EEE 0.31 µM,0.010
same,Gal9 response compared to reference,[3]; EEE 0.62 µM,0.013
same,Gal9 response compared to reference,[3]; EEE 1.25 µM,0.014
same,Gal9 response compared to reference,[3]; EEE 2.5 µM,0.031
same,Gal9 response compared to reference,[3]; EEE 5 µM,0.118
same,Gal9 response compared to reference,[3]; EEE 10 µM,0.421
same,Gal9 response compared to reference,[4]; EEE 0.31 µM,0.009
same,Gal9 response compared to reference,[4]; EEE 0.62 µM,0.007
same,Gal9 response compared to reference,[4]; EEE 1.25 µM,0.010
same,Gal9 response compared to reference,[4]; EEE 2.5 µM,0.016
same,Gal9 response compared to reference,[4]; EEE 5 µM,0.047
same,Gal9 response compared to reference,[4]; EEE 10 µM,0.280
same,Luciferase expression compared to reference,[5],0.590
same,Gal9 response compared to reference,[6]; EEE 0.31 µM,0.013
same,Gal9 response compared to reference,[6]; EEE 0.62 µM,0.013
same,Gal9 response compared to reference,[6]; EEE 1.25 µM,0.015
same,Gal9 response compared to reference,[6]; EEE 2.5 µM,0.023
same,Gal9 response compared to reference,[6]; EEE 5 µM,0.058
same,Gal9 response compared to reference,[6]; EEE 10 µM,0.232
same,Gal9 response compared to reference,[7]; EEE 0.31 µM,0.005
same,Gal9 response compared to reference,[7]; EEE 0.62 µM,0.005
same,Gal9 response compared to reference,[7]; EEE 1.25 µM,0.004
same,Gal9 response compared to reference,[7]; EEE 2.5 µM,0.006
same,Gal9 response compared to reference,[7]; EEE 5 µM,0.035
same,Gal9 response compared to reference,[7]; EEE 10 µM,0.213
same,Gal9 response compared to reference,[8]; EEE 0.31 µM,0.008
same,Gal9 response compared to reference,[8]; EEE 0.62 µM,0.005
same,Gal9 response compared to reference,[8]; EEE 1.25 µM,0.005
same,Gal9 response compared to reference,[8]; EEE 2.5 µM,0.005
same,Gal9 response compared to reference,[8]; EEE 5 µM,0.015
same,Gal9 response compared to reference,[8]; EEE 10 µM,0.155
same,Gal9 response compared to reference,[9]; EEE 0.31 µM,0.015
same,Gal9 response compared to reference,[9]; EEE 0.62 µM,0.019
same,Gal9 response compared to reference,[9]; EEE 1.25 µM,0.019
same,Gal9 response compared to reference,[9]; EEE 2.5 µM,0.026
same,Gal9 response compared to reference,[9]; EEE 5 µM,0.073
same,Gal9 response compared to reference,[9]; EEE 10 µM,0.457
COc1nn(C2CCN(C(C)C)CC2)cc1Nc1ncc(F)c(-n2ccc3c(C#N)cccc32)n1 [EEE9],Gal9 response compared to reference,[1]; EEE 0.31 µM,0.028
same,Gal9 response compared to reference,[1]; EEE 0.62 µM,0.032
same,Gal9 response compared to reference,[1]; EEE 1.25 µM,0.071
same,Gal9 response compared to reference,[1]; EEE 2.5 µM,0.396
same,Gal9 response compared to reference,[1]; EEE 5 µM,0.712
same,Gal9 response compared to reference,[1]; EEE 10 µM,0.639
same,Gal9 response compared to reference,[2]; EEE 0.31 µM,0.013
same,Gal9 response compared to reference,[2]; EEE 0.62 µM,0.016
same,Gal9 response compared to reference,[2]; EEE 1.25 µM,0.117
same,Gal9 response compared to reference,[2]; EEE 2.5 µM,0.756
same,Gal9 response compared to reference,[2]; EEE 5 µM,0.780
same,Gal9 response compared to reference,[2]; EEE 10 µM,0.696
same,Gal9 response compared to reference,[3]; EEE 0.31 µM,0.010
same,Gal9 response compared to reference,[3]; EEE 0.62 µM,0.013
same,Gal9 response compared to reference,[3]; EEE 1.25 µM,0.042
same,Gal9 response compared to reference,[3]; EEE 2.5 µM,0.209
same,Gal9 response compared to reference,[3]; EEE 5 µM,0.533
same,Gal9 response compared to reference,[3]; EEE 10 µM,0.691
same,Gal9 response compared to reference,[4]; EEE 0.31 µM,0.012
same,Gal9 response compared to reference,[4]; EEE 0.62 µM,0.009
same,Gal9 response compared to reference,[4]; EEE 1.25 µM,0.019
same,Gal9 response compared to reference,[4]; EEE 2.5 µM,0.083
same,Gal9 response compared to reference,[4]; EEE 5 µM,0.220
same,Gal9 response compared to reference,[4]; EEE 10 µM,0.366
same,Luciferase expression compared to reference,[5],0.692
same,Gal9 response compared to reference,[6]; EEE 0.31 µM,0.012
same,Gal9 response compared to reference,[6]; EEE 0.62 µM,0.013
same,Gal9 response compared to reference,[6]; EEE 1.25 µM,0.018
same,Gal9 response compared to reference,[6]; EEE 2.5 µM,0.055
same,Gal9 response compared to reference,[6]; EEE 5 µM,0.254
same,Gal9 response compared to reference,[6]; EEE 10 µM,0.502
same,Gal9 response compared to reference,[7]; EEE 0.31 µM,0.005
same,Gal9 response compared to reference,[7]; EEE 0.62 µM,0.005
same,Gal9 response compared to reference,[7]; EEE 1.25 µM,0.007
same,Gal9 response compared to reference,[7]; EEE 2.5 µM,0.110
same,Gal9 response compared to reference,[7]; EEE 5 µM,0.393
same,Gal9 response compared to reference,[7]; EEE 10 µM,0.495
same,Gal9 response compared to reference,[8]; EEE 0.31 µM,0.009
same,Gal9 response compared to reference,[8]; EEE 0.62 µM,0.009
same,Gal9 response compared to reference,[8]; EEE 1.25 µM,0.007
same,Gal9 response compared to reference,[8]; EEE 2.5 µM,0.011
same,Gal9 response compared to reference,[8]; EEE 5 µM,0.060
same,Gal9 response compared to reference,[8]; EEE 10 µM,0.564
same,Gal9 response compared to reference,[9]; EEE 0.31 µM,0.018
same,Gal9 response compared to reference,[9]; EEE 0.62 µM,0.020
same,Gal9 response compared to reference,[9]; EEE 1.25 µM,0.031
same,Gal9 response compared to reference,[9]; EEE 2.5 µM,0.212
same,Gal9 response compared to reference,[9]; EEE 5 µM,0.569
same,Gal9 response compared to reference,[9]; EEE 10 µM,0.627
